What was measured:
INA-6 cells = test: STAT3(Y705) and PIM kinase substrate phosphorylation in INA-6 cells in culture; assay type: cell-based; conditions: INA-6 cells treated for 24 hours in culture
Protocol: Fig S1. Effects of INCB053914 on STAT3(Y705) and PIM kinase substrate phosphorylation in INA-6 cells treated for 24 hours in culture.

[1] = system: PIM isozyme expression in Pfeiffer DLBCL cells; test: PIM isozyme expression in Pfeiffer DLBCL cells; assay type: cell-based
Pfeiffer DLBCL cells = test: In vitro proliferation of Pfeiffer DLBCL cells, single agents and combination; assay type: cell-based
Protocol: Synergistic effects of INCB053914 in combination with INCB050465, cytarabine, or itacitinib, were assessed based on the Bliss independence model. In this model, the expected additive effect, with the assumption that concentration dependent effects of 2 drugs (A and B) are independent, is given by the equation EIND = EA + EB – EA •EB, where 0 ≤ EIND ≤ 1; EA and EB are the magnitudes of effects of A and B alone at given concentrations.
The interaction between effects of A and B can be described by the equation Combination Index = EIND/ EOBS, where EOBS is the observed combined effect of A + B expressed as a probability (0 ≤ EOBS ≤ 1). If the point estimate of Combination Index and its upper 97.5% confidence limit are <1 then the combined effect is synergistic; if the 2-sided 95% confidence intervals (CI) encompass 1 then the combined effect is additive (ie, independent); if the point estimate of Combination Index and the lower 2.5% confidence limit are >1 then the combined effect of A + B are antagonistic.

[2] = system: human KG-1 AML xenografts; test: Tumor growth in KG-1 (AML) xenograft, combination with cytarabine; assay type: in vivo, mouse; conditions: KG-1 (AML) tumors
Protocol: Female immune compromised (severe combined immunodeficiency [SCID]) mice (5–9 weeks of age; Charles River Laboratories, Wilmington, Massachusetts) were inoculated with MOLM-16, KG-1, or KMS-12-BM cells. A cell suspension in Dulbecco’s phosphate-buffered saline (DPBS) (1 × 10^8 cells/ml) was mixed 1:1 (v/v) with matrigel, and 200 μl was injected subcutaneously into the flank of each mouse. […] The treatment of tumor-bearing mice started 7 to 24 days after tumor inoculation for efficacy studies and approximately 14 to 27 days after tumor inoculation for pharmacodynamic studies.
Synergistic effects of INCB053914 in combination with INCB050465, cytarabine, or itacitinib, were assessed based on the Bliss independence model [56, 57]. In this model, the expected additive effect, with the assumption that concentration dependent effects of 2 drugs (A and B) are independent, is given by the equation EIND = EA + EB – EA •EB, where 0 ≤ EIND ≤ 1; EA and EB are the magnitudes of effects of A and B alone at given concentrations.
The interaction between effects of A and B can be described by the equation Combination Index = EIND/ EOBS, where EOBS is the observed combined effect of A + B expressed as a probability (0 ≤ EOBS ≤ 1). […]

[3] = system: pBAD, pSTAT3 and MYC in INA-6 (MM) tumors; test: pBAD, pSTAT3 and MYC levels in INA-6 (MM) tumors; assay type: in vivo, mouse; conditions: INA-6 (MM) tumors in mice
Protocol: The PI3Kδ inhibitor INCB050465 (10 mg/kg once a day orally) was evaluated in combination with INCB053914 (30 mg/kg once a day orally) in mice bearing Pfeiffer (DLBCL) xenografts, a model sensitive to PI3Kδ inhibition (eight mice/group). Cytarabine was administered via intraperitoneal injection at a standard dose of 20 mg/kg twice a week, in combination with oral INCB053914 at a submaximally efficacious dose of 20 mg/kg twice a day for 12 days in mice bearing human KG-1 AML xenografts, a cytarabine-sensitive model (eight mice/group). The oral JAK1-selective inhibitor itacitinib (60 mg/kg twice a day orally) was assessed in combination with INCB053914 (100 mg/kg twice a day orally) after 8 days of administration to SCID mice bearing INA-6 (MM) xenografts (eight mice/group), a model sensitive to JAK inhibition.

Compound: N#CC[C@H](C1CCCC1)n1cc(-c2ncnc3[nH]ccc23)cn1 [ruxolitinib]
- PIM kinase substrate phosphorylation (INA-6 cells): unaffected

Compound: CCOc1c([C@H](C)n2nc(C)c3c(N)ncnc32)cc(Cl)c(F)c1[C@@H]1CNC(=O)C1 [INCB050465]
- expression of all three PIM isozymes relative to baseline [1]: concentration-dependent increases
- increase in PIM2 expression relative to baseline [1]: ~ 2.5 fold
- proliferation of Pfeiffer cells, single agent (Pfeiffer DLBCL cells): inhibited

Compound: Nc1ccn([C@@H]2O[C@H](CO)[C@@H](O)[C@@H]2O)c(=O)n1 [cytarabine, Cytarabine, reference compound]
- tumor growth, single agent [2]: inhibited

Compound: N#CCC1(n2cc(-c3ncnc4[nH]ccc34)cn2)CN(C2CCN(C(=O)c3ccnc(C(F)(F)F)c3F)CC2)C1 [itacitinib, reference compound]
- MYC levels [3]: decreased MYC levels
- level of pSTAT3 [3]: decrease
- PIM kinase substrate phosphorylation (INA-6 cells): unaffected

Source: PMC6013247, “Preclinical characterization of INCB053914, a novel pan-PIM kinase inhibitor, alone and in combination with anticancer agents, in models of hematologic malignancies” (PLoS ONE, 2018)
